Reference: patent US20080058324A1, “Alpha-Keto Carbonyl Calpain Inhibitors” (SANTHERA PHARMACEUTICALS (SCHWEIZ) AG, priority 2004, published 2008)

How the values were obtained:
[1] = test system: Primary fibroblasts from donors with Friedreich Ataxia (FRDA); assay: BSO Assay (cell viability of Friedreich Ataxia fibroblasts under BSO oxidative stress); format: cell-based; conditions: Homo sapiens, Fibroblast
Protocol: Primary fibroblasts were derived from donors with molecular diagnosis for Friedreich Ataxia (FRDA) and control donors with no mitochondrial disease. Cell lines were obtained from Coriell Cell Repositories (Camden, N.J.; catalog numbers GM04078, GM08402 and GM08399 respectively). All cell types were diagnosed on the molecular level for intronic GAA triplet repeat length of at least 400-450 repeats using a PCR-based method. Experiments were carried out as described in the literature (M. L. Jauslin et al., Human Mol. Genet., 2002, 11, 3055-3063): Cells were seeded in microtiter plates at a density of 4′000 cells per 100 μl in growth medium consisting of 25% (v/v) M199 EBS and 64% (v/v) MEM EBS without phenol red (Bioconcept, Allschwil, Switzerland) supplemented with 10% (v/v) fetal calf serum (PAA Laboratories, Linz, Austria), 100 U/ml penicillin, 100 μg/ml streptomycin (PAA Laboratories, Linz, Austria), 10 μg/ml insulin (Sigma, Buchs, Switzerland), 10 ng/ml EGF (Sigma, Buchs, Switzerland), 10 ng/ml bFGF (PreproTech, Rocky Hill, N.J.) and 2 mM glutamine (Sigma, Buchs, Switzerland). The cells were incubated in the presence of various test compounds for 24 h before addition of L-buthionine-(S,R)-sulfoximine (BSO) to a final concentration of 1 mM. Cell viability was measured after the first signs of toxicity appeared in the BSO-treated controls (typically after 16 to 48 h). The cells were stained for 60 min at room temperature in PBS with 1.2 μM calceinAM and 4 μM ethidium homodimer (Live/Dead assay, Molecular Probes, Eugene, Oreg.). Fluorescence intensity was measured with a Gemini Spectramax XS spectrofluorimeter (Molecular Devices, Sunnyvale, Calif.) using excitation and emission wavelengths of 485 nm and 525 nm respectively.

20S Proteasome = biological target: T1, 20S Proteasome (Oryctolagus cuniculus, UniProt G1T4Q9); assay: 20S Proteasome Assay; format: biochemical, Rabbit; conditions: read-out: 20S Prot IC50
T1 sequence (G1T4Q9 60-263): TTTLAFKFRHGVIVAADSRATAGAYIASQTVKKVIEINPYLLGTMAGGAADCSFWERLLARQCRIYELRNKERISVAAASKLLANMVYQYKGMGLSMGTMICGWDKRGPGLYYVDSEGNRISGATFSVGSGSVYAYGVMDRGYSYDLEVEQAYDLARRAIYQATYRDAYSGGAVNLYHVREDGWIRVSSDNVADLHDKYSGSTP
Protocol: 25 μl of a reaction buffer containing 400 μM of the fluorogenic substrate Suc-Leu-Leu-Val-Tyr-AMC (Bachem) are dispensed per well of a white microtiter plate. Test compounds dissolved in 0.5 μl DMSO are added. To start the reaction; 25 μl of reaction buffer containing 35 ng of enzyme (20S Proteasome, Rabbit, Calbiochem) are added. The increase in fluorescence (excitation at 360 nm; emission at 440 nm) is measured over 30 min at 30° C. at 30″. The IC50's are then determined from the slopes.

[2] = test system: cellular calpains in C2C12 myoblasts; assay: Calpain Inhibition Assay in C2C12 Myoblasts; format: cell-based; conditions: read-out: Calp I IC50 Myoblast
Protocol: This assay is aimed at monitoring the ability of the substance to inhibit cellular calpains. C2C12 myoblasts are grown in 96-well plates in growth medium (DMEM, 20% foetal calf serum) until they reach confluency. The growth medium is then replaced by fusion medium (DMEM, 5% horse serum). 24 hours later the fusion medium is replaced by fusion medium containing the test substances dissolved in 1 μl DMSO. After 2 hours of incubation at 37° C. the cells are loaded with the calpain fluorogenic substrate Suc-Leu-Tyr-AMC at 400 μM in 50 μl of a reaction buffer containing 135 mM NaCl; 5 mM KCl; 4 mM CaCl2; 1 mM MgCl2; 10 mM Glucose; 10 mM HEPES pH 7.25 for 20 min at room temperature. The calcium influx, necessary to activate the cellular calpains, is evoked by the addition of 50 μl reaction buffer containing 20 μM of the calcium ionophore Br-A-23187 (Molecular Probes). The fluorescence of the cleavage product AMC is measured as described above during 60 min at 37° C. at intervals of 1 min. The IC50 values are determined as described above. Comparison of the IC50 determined in the enzymatic calpain inhibition assay to the IC50 determined in the C2C12 myoblasts calpain inhibiton assay, allows to evaluate the cellular uptake or the membrane permeability of the substance.

IC50 (20S Proteasome) [nM]	IC50 [2] [nM]	Structure (SMILES)	EC50 [1] [nM]
120	50	CCNC(=O)C(=O)[C@H](Cc1ccc(Cl)cc1)NC(=O)[C@@H](NC(=O)[C@H](Cc1ccccc1)NC(=O)CCCCc1cccs1)C(C)C [Example 1]	700
< 10	150	CCNC(=O)C(=O)C(Cc1ccc(Cl)cc1)NC(=O)C(NC(=O)C(Cc1cccc2ccccc12)NC(=O)CCCCc1cccs1)C(C)C (stereo not drawn) [Example 22]	10
23	10	CCNC(=O)C(=O)C(Cc1ccc(OC)cc1)NC(=O)C(NC(=O)C(CCc1ccccc1)NC(=O)CCc1cccs1)C(C)C (stereo not drawn) [Example 520]	< 1
